Data published in US10112933B2, “Methods and compositions for treatment of fibrosis” (Baylor College of Medicine, priority 2013, dated 2018).

Legend:
skin fibrosis = assay: Subcutaneous bleomycin mouse model of skin fibrosis; assay type: in vivo; details: intraperitoneal treatment days 14-28 of the 4 week model
Procedure: FIG. 20 illustrates an exemplary study design using a subcutaneous (SQ) bleomycin model for skin fibrosis. In a basic model, bleomycin is administered to wild type mice (C57/Bl6) via subcutaneous injection 5 days a week for a total of 4 weeks. PBS is used as a control for the bleomycin. Fibrosis is assessed in the biopsied skin on day 28. Fibrosis is assessed using histology (hematoxylin and eosin stain), where the dermal thickness is quantified as the average linear distance from the dermis-epidermis junction to the subQ muscle layer. Masson's trichrome staining is also performed to stain collagen blue. Immunohistochemistry is performed for alpha-smooth muscle actin, the marker of the myofibroblasts (cell that makes collagen during the process of fibrosis). Future endpoints are assessed including collagen content. To illustrate that STAT3 inhibitor is a useful therapy at least for dermal fibrosis, an example of a STAT3 inhibitor (C188-9) was given via the intraperitoneal route daily, starting in week 3 of the bleomycin model. DMSO was used as a control for the STAT3 inhibitor.

murine lung fibroblasts = assay: Myofibroblast differentiation of lung fibroblasts; assay type: cell-based
Procedure: (§1) The role of STAT3 in EMT and myofibroblast differentiation was determined by using […]-9 in tissue culture experiments with alveolar epithelial cells (AEC; MLE-12 and primary AEC) and murine lung fibroblasts. […] […]-9 prevented TGF-beta and IL-6/sIL-6R-alpha induced EMT of AEC assessed by Col1a, alpha-SMA, Twist, and Snail mRNA levels and reduced myofibroblast differentiation as assessed by Col1a and alpha-SMA mRNA levels.

[1] = test system: alveolar epithelial cells (MLE-12 and primary AEC); assay: TGF-beta and IL-6/sIL-6R-alpha induced EMT of alveolar epithelial cells; assay type: cell-based
Procedure: as §1

## COc1ccc(S(=O)(=O)Nc2cc(-c3c(O)ccc4ccccc34)c(O)c3ccccc23)cc1 [C188-9, N-(1′,2-dihydroxy-1,2′-binaphthalen-4′-yl)-4-methoxybenzenesulfonamide]
Skin fibrosis
  bleomycin-induced increase of dermal fibrotic gene expression (Acta2, Col1a1, Col1a2 transcripts), RT-PCR: blunted
Murine lung fibroblasts
  myofibroblast differentiation (Col1a and alpha-SMA mRNA levels): reduced
[1]
  TGF-beta and IL-6/sIL-6R-alpha induced EMT of AEC (Col1a, alpha-SMA, Twist, Snail mRNA levels): prevented
